Patent US20140275224A1, “CYTOSINE DEAMINASE MODULATORS FOR ENHANCEMENT OF DNA TRANSFECTION” (Regents of the University of Minnesota, priority 2010, published 2014)

Assays:
[1] = system: A3 DNA deaminase (A3A or A3G); assay: fluorescence-based DNA deamination assay, high-throughput screening; format: biochemical, human; settings: 10 μM library compound, inhibitors inhibit the reaction by 50% or more and reproduce in dose response
Description: MN132, MN137, MN141, and MN152 are a few exemplary molecules identified from high-throughput screening. To screen for inhibitors of A3A or A3G DNA cytosine deaminase activity, a previously described fluorescence-based assay has been modified, optimized, and miniaturized (FIG. 2A) (30). C-to-U by A3A or A3G creates a substrate uracil that is excised by UDG, and the resulting abasic site is attacked by hydroxide to release 6-FAM fluorescence from the TAMRA quench. Recombinant A3A- or A3G-myc-His purified from a HEK-293-based cell line is incubated with uracil DNA glycosylase (UDG), 10 μM library compound (or a DMSO control), and a cytosine-containing, single-stranded DNA substrate attached to a 5′ 6-FAM fluorescent tag and a 3′ TAMRA quench molecule. During a 2 hr incubation period, the A3 protein deaminates 5′-C-to-U and UDG excises the uracil to leave an abasic site. DNA cleavage by NaOH produces a fluorescent signal by releasing the 6-FAM fluorophore from the TAMRA quench. This assay is highly sensitive and reproducible (A3G Z score=0.86 and A3A Z score=0.88 on the University of Minnesota ITDD HTS platform). […]
Protocols were developed for purification of A3-myc-His proteins from HEK-293 cells. […] High (80-90%) purity is achieved routinely, and all proteins show robust activity in our fluorescence-based C-to-U deaminase assay as shown in FIGS. 4C and 4D.

A3A = target: T1, A3A (Homo sapiens, UniProt P31941); assay: DNA deaminase assay in A3A-expressing HEK-293T cell extracts; format: biochemical; settings: A3A-transfected HEK-293T total cell extracts, compared with recombinant protein, FIG. 5
T1 construct: expressed in transfected cells; host or cells: HEK-293T
Description: Like the recombinant protein assay described above, assays with A3-containing cell extracts are done in 96 and 384 well formats and the read-out is relative fluorescence units.
The deaminase activity in the lysates was determined using a FRET-based assay essentially as described^59. […] FRET occurs between the fluorophores, decreasing FAM fluorescence. If cytidine deaminase activity is present in the lysates, the single cytidine is converted to uridine, which is then excised by uracil DNA glycosylase (NEB). Resulting abasic sites are cleaved by incubating reactions for 2 min at 95° C. Once cleaved, the FAM and TAMRA labels are physically separated, FRET diminishes, and FAM fluorescence increases. Fluorescence is measured on the Lightcycler 480 instrument (Roche).

primary human monocytes = primary human monocytes nucleofected with a GFP expression vector; format: cell-based; settings: 3 days post-transfection, flow cytometry, versus DMSO (not detectably transfected), FIG. 7B
Description: Primary human monocytes were purified by negative selection and nucleofected with a GFP expression vector. Since these cells naturally express A3A, transfection with A3A expression plasmids was not necessary. The pool of transfected cells was split into wells containing media plus vehicle control or MN132. A variety of different cell lines (lymphoid, liver, breast, brain, epithelial, and colorectal origins) and distinct primary white blood cell types (T, B, monocyte, neutrophil, etc.) can be used in these experiments to test the central hypothesis that the endogenous A3s constitute a general barrier to foreign DNA and genetic engineering.

[2] = target: E. Coli uracil-DNA glycosylase (Escherichia coli, UniProt P12295); assay: control assay with UDG (U-containing oligos, without A3s); format: biochemical; settings: specificity control, FIG. 2C
Description: All newly synthesized compounds can be tested in dose response experiments against recombinant A3A and A3G to identify the sub-library_compounds that have dual-inhibitory activity like the parental molecules.
These initial experiments can also identify the subset with improved IC50 values. Second, all confirmed inhibitors can be tested against the other five recombinant human A3 proteins (A3BCDEFH) to identify broader-spectrum inhibitors. Third, reactions can be performed with U-containing oligos and UDG (i.e., without A3s) to re-confirm that all new inhibitors have not become general enzyme inhibitors. These assays can be carried out in 96 or 384 well plate formats. HEK-293T cells were transfected with an A3A expression plasmid, and total cell extracts were used in DNA deaminase assays. Non-transfected or A3A-E72A catalytic mutant transfected cell extracts show no activity (28).

T1 sequence (P31941 whole entry): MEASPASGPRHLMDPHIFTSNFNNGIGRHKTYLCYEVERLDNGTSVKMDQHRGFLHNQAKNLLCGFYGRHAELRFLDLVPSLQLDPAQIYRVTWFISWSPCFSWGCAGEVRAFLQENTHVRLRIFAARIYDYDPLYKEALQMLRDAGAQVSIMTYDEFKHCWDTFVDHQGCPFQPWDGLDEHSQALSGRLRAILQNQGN
Sequence of E. Coli uracil-DNA glycosylase (P12295 whole entry): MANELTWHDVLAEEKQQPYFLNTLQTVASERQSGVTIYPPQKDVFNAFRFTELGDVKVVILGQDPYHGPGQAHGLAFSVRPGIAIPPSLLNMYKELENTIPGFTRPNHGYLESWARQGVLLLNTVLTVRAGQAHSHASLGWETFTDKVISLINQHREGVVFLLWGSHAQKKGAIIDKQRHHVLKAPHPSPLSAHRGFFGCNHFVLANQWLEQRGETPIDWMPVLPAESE

IC50 values in cell extracts (A3A)	SMILES	inhibition of A3 DNA deaminase activity in vitro [1]	percentage of cells expressing GFP (primary human monocytes)	block of UDG [2]
higher	Cc1ccc(-c2cc(C(=O)Nc3nnc(-c4ccncc4)s3)c3ccccc3n2)o1 [MN132, 2-(5-methylfuran-2-yl)-N-(5-(pyridin-4-yl)-1,3,4-thiadiazol-2-yl)quinoline-4-carboxamide]	inhibit A3 DNA deaminase activity in vitro	dose dependent increases	
	O=C(O)C1=CC(=C(c2ccc(O)c(C(=O)O)c2)c2ccc(O)c(C(=O)O)c2)C=CC1=O [ATA]			lone exception
